This is an account of results in patent publication US8815249B2 (priority 1999, dated 2014).

“Also recorded” adds a separate entry of the source. Where two headings read alike, the source gives them in different places. Non-standard residues stand in square brackets, D forms with d. Ava = NCCCCC(=O)O

Assay [1] relates to purified splenic CD4+ Th cells. Details: species or system DR4-IE Tg mice. Particulars: mouse, in vivo, sc.
Assay [2] has as its system total splenic cells from DR4-IE Tg mice. The experiment in a line: IFN-γ ELISPOT recall response, total splenic cells, Ii-Key/gp100 hybrids. It is filed as in vivo. Particulars: specificity control. From the text:
Immunizations. DR4-IE Tg mice were immunized subcutaneously at the base of the tail with 40 nmole or 60 nmole of Ii-Key/gp100 MHC class II hybrid or epitope-only peptides, dissolved in saline and emulsified with an equal volume of either IFA or CFA. The synthetic phosphorothioate-modified CpG ODN 1826, 5′ TCC […] CTG ACGTT 3′ (SEQ ID NO.: 906) immunostimulatory nucleotide (CpG motif underlined) was purchased from Oligos Etc. (Wilsonville, Oreg.). DR4-IE Tg mice were vaccinated s.c. with 60 nmole of designated immunogen in an emulsion with IFA and 60 μg CpG. […]
ELISPOT assays. […] Digitalized images of spots were analyzed with a Series 1 Immunospot Analyzer and Immunospot 1.7e software (Cellular Technology Limited, Cleveland, Ohio). Criteria for spot size, circularity and color density were determined by comparing control and experimental wells. […] Only areas meeting the specified criteria were counted as spots. Mean and standard deviations were calculated for all assays. […]
Structure-activity rules identified in study. The stimulation of splenic mononuclear lymphocytes from HLA-DR4-IE Tg mice immunized with, respectively, with each of the peptides of Table 1.2 with complete Freund's adjuvant (CFA), was determined in an ELISPOT assay for IFN-γ, IL-4 and IL-2. […]

For assay [3], the system named is MHC Class II molecules. The settings on record: cited from earlier work.
Assay [4] relates to HIV gp160(843-855) peptide. It is filed as in vivo. Particulars: B10.A (5R) mice, peptides in saline solution, serum day 35. As to the method: An ELISA assay for antibody responses following immunization with the experimental peptides indicated above was performed as follows. Fifty microliters (μl) of a solution of the coating peptide at 2 μg/well in 0.1 M carbonate buffer, pH 9.5 was added to each well of a 96-well Nunc-immunoplate (#442404) for an overnight incubation at 4° C. After aspiration, 250 μl of phosphate-buffer saline solution containing 3% fetal bovine serum (assay diluent) was added to each well for 2 hr at RT. After washing three times with assay diluent, 50 μl of 20-times diluted mouse serum in 1:3 serial dilution in assay diluent was added to each well for 2 hr at RT. After washing three times with assay diluent, 50 μl of 1 ÿg/ml biotinylated goat anti-mouse IgG1 or IgG2a was added to each well and incubated for 1 hr at RT. After washing three times with assay diluent, 50 μl of streptavidin-horse radish peroxidase conjugate (1:1000) was added to each well and incubated for 30 min at RT. After washing three times with assay diluent, 100 μl of tetramethylbenzidine/H2O2 solution (Pharmingen 264KK) was added to each well for 15 min in the dark at room temperature. The reaction was stopped with 100 μl 1N H2SO4 in each well and the absorbance was read immediately at 450 nm.
B10.A (5R) mice (H-2^k/b) were immunized with 20 nmole of peptides in 50 μl phosphate-buffered saline solution, intramuscularly in right and left rear legs on days 1 and 2, respectively. On day 14 the mice were boosted intramuscularly with 40 nmole of peptides in 200 μl Hank's balanced salts solution intramuscularly in a rear leg. On day 30 the mice were boosted intravenously with 40 nmole peptides dissolved in Hank's balanced salts solution (HBSS). On day 35 the mice were sacrificed and serum samples were assayed for antibody titers against the HIV gp160(843-855) peptide.

Assay [5] relates to splenic T cells. Details: species or system B10(A) 5R mice. The settings on record: mouse, in vivo.
Assay [6] concerns splenic T cells. Type of assay: in vivo. The settings on record: C3H/HeJ mice, spleen cells day 35 re-stimulated with HIV gp160(843-855) peptide, triplicate wells. As to the method:
An ELISPOT assay for IFN-γ cytokine responses was performed in order to titer more exactly splenic T lymphocyte subset responses to immunization with Ii-Key-ava-gp160(843-855) or gp160(843-855). The assay was performed as follows. A solution of the cytokine-specific capture antibody (100 μl at 6 μg/ml in phosphate-buffered saline solution, pH 7.2) was added to each well of a 96-well Immunospot plate (M200) for an overnight incubation at 4° C. After aspiration, phosphate-buffer saline solution 200 μl containing 10% fetal bovine serum and 1% penicillin-streptomycin-glutamine (mouse medium) was added to each well for 2 hr at RT. After washing four times with 1% Tween-20 in phosphate-buffered saline solution (wash buffer I), 100 μl of single cell suspensions from the spleens of immunized mice at 10^6 cells/well were re-stimulated with 100 μl of peptide-epitope at 5 μg/well in mouse medium and incubated for 20-40 hr at 37° C., 5% CO2. After washing twice with phosphate-buffered saline solution (wash buffer II) and four times with wash buffer I, 100 μl of 2 ÿg/ml biotinylated anti-mouse IFN-γ in 1× phosphate buffer saline with 10% fetal bovine serum (dilution buffer) was added to each well for 2 hr at RT. After washing five times with wash buffer I, 100 il of streptavidin-horse radish peroxidase conjugate (1:500) in dilution buffer was added to each well for 1 hr at RT. After washing four times with wash buffer I and two times with wash buffer II, 100 μl of the 3-amino-9-ethylcarbazole/H2O2 substrate (Pharmingen 551951) was added and incubated for 30-60 min in the dark at RT. The reaction was stopped by washing three times with 200 μl of deionized water. ELISPOT data analysis was performed by using the Immunospot 1.7e software ([…]). […] Additional counting parameters for spot size and circularity were applied to gate out speckles caused by non-specific antibody binding. Each spot represents a single cell secreting IFN-γ.
C3H/HeJ(H-2^k) mice were immunized with 40 nmole of peptides (50 μl) emulsified with equal volume of incomplete Freund's adjuvant (IFA), subcutaneously at the base of the tail. On day 13 the mice were boosted subcutaneously at the base of the tail with 40 nmole of peptides (50 μl) emulsified with equal amount of incomplete Freund's adjuvant (IFA). On day 31, the mice were boosted intravenously with 40 nmole peptides dissolved in 100 μl Hank's balanced salts solution (HBSS). On day 35, the mice were sacrificed and single cell suspensions from spleens were assayed for IFN-γ responses to HIV gp160(843-855) peptide.
Number is the mean number of spots (and standard deviation) in triplicate wells and Size is the mean spot size in mm^2 (and standard deviation). Ii-Key/gp160(844-855) has one ava spacer (Ii-key-ava-gp160(844-855)).

The subject of assay [7] is tumor cells expressing CEA. The settings on record: cited from earlier work.
In assay [8] the test system is HLA alleles of the A2 supertype (A2.2, A2.3, A2.6 and A6802). Particulars: cited from earlier work.
Assay [9] relates to PGCC(95-104) epitope peptide. Details: species or system C3H/HeJ mice. The settings on record: mouse, in vivo.

RQLYPEWTEAQRL [Peptide A]: the IFN-γ spots in [1] turned out to be 491 spots.
Consider “GVGSPYVSRLLGICL [HER-2/neu (776-790) epitope]”, for which the “spots on in vitro stimulation with non-specific DR4 restricted epitope” value in assay [2] (immunization in CFA) is recorded as “Less than 10 spots/well”. Also, the “spots on stimulation with non-specific HLA-DR4-restricted epitope” value in assay [2] (b664 CFA, b669 CpG in IFA) is given as “non-significant immune response; also recorded: three to six spots”.
As to LRMK, the “activity of Ii-Key peptides in presentation of antigenic peptides” value (“activity of Ii-Key peptides” below) in assay [3] is “half-maximal activity”.
Turning to “LRMKLPK (printed: Leu-Arg-Met-Lys-Leu-Pro-Lys)”, the “activity of Ii-Key peptides” value in assay [3] was “significantly greater activity”.
Take “Ac-LRMK-AYRAIRHIPR-NH2 (Ac-LRMKAYRAIRHIPR-NH2) [gp160(843-855)]”: in [4] (Dilution^−1 20), the “Antibody induction, ELISA against HIV gp160(843-855) peptide” value (shortened to “Antibody induction, ELISA”) is 0.052. The “Antibody induction, ELISA” value in [4] (Dilution^−1 60) came out at 0.023. The “Antibody induction, ELISA” value in [4] (Dilution^−1 180) is recorded as 0.000. Also, in assay [4] (Dilution^−1 540), the “Antibody induction, ELISA” value is listed as −0.005. In assay [5], the “Percentage of cells CD3^+/IFN-γ^+” value is given as 2.05%, the “Percentage of cells CD4^+” value is recorded as 31.03% and the “Percentage of cells CD4^+/IFN-γ^+” value was found to be 0.94%. For the same substance, in [6], the “Number (mean number of IFN-γ ELISPOT spots and standard deviation)” value is given as 5 (+/−3.6); the “Size (mean spot size and standard deviation)” value is on record as 0.019 (+/−0.01) mm^2.
As for HLFYSWYK [9.5.6], the CTL induction entry in assay [7] is listed as “elicited CTL lines that lysed tumor cells”.
As to LMTFWNPPV [9.5.2], the “binding to HLA alleles of the A2 supertype” value in assay [8] is “bound tightly”. In addition, the CTL induction result in assay [7] is reported as “induced vigorous anti-tumor CTL responses”.
As to QYSWFVNGTF [9.5.4], the CTL induction result in assay [7] is “elicited CTL lines that lysed tumor cells”.
In the case of “Ac-LRMK-ava-YRAIRHIPR-NH2 (Ac-LRMK[Ava]YRAIRHIPR-NH2; SMILES CC[C@H](C)[C@H](NC(=O)[C@H](C)NC(=O)[C@H](CCCNC(=N)N)NC(=O)[C@H](Cc1ccc(O)cc1)NC(=O)CCCCNC(=O)[C@H](CCCCN)NC(=O)[C@H](CCSC)NC(=O)[C@H](CCCNC(=N)N)NC(=O)[C@H](CC(C)C)NC(C)=O)C(=O)N[C@@H](CCCNC(=N)N)C(=O)N[C@@H](Cc1c[nH]cn1)C(=O)N[C@H](C(=O)N1CCC[C@H]1C(=O)N[C@@H](CCCNC(=N)N)C(N)=O)[C@@H](C)CC) [Ii-Key/one-ava/gp160(844-855)]”, in assay [6], the “Number (mean number of IFN-γ ELISPOT spots and standard deviation)” value was 59 (+/−5); the “Size (mean spot size and standard deviation)” value was 0.028 (+/−0.006) mm^2.
In the case of “Ac-LRMK-ava-IAYLKQATAK-NH2 (Ac-LRMK[Ava]IAYLKQATAK-NH2; SMILES CC[C@H](C)[C@H](NC(=O)CCCCNC(=O)[C@H](CCCCN)NC(=O)[C@H](CCSC)NC(=O)[C@H](CCCNC(=N)N)NC(=O)[C@H](CC(C)C)NC(C)=O)C(=O)N[C@@H](C)C(=O)N[C@@H](Cc1ccc(O)cc1)C(=O)N[C@@H](CC(C)C)C(=O)N[C@@H](CCCCN)C(=O)N[C@@H](CCC(N)=O)C(=O)N[C@@H](C)C(=O)N[C@H](C(=O)N[C@@H](C)C(=O)N[C@@H](CCCCN)C(N)=O)[C@@H](C)O) [Ii-Key/PGCC]”, in assay [9], the “antibody titers against PGCC epitope” value is “Significantly greater antibody titers”.
In the case of LRMKLPKPPKPVSQMR [Ii(77-92)], the “activity of Ii-Key peptides” value in assay [3] is listed as “enhanced presentation of antigenic peptides”.
